According to US5607707A, “Compositions” (priority 1992, dated 1997):

Assays:
[1] = Experimental: The colour stability of the compositions according to the present invention were determined using the following simulated shelf and accelerated storage tests.
This is illustrated with data from a study in which combinations of β-carotene, apo-carotenal and ascorbic acid were incorporated in a typical beverage formulation. The products were stored in bright daylight conditions for a period of 30 days and the colour loss at the end of this period was determined by spectrophotometry.

[2] = Water solubility / dissolution; type: physicochemical; details: primary addition of apo-carotenal, in words
[3] = Effect of temperature on amount of emulsifier required to achieve optical clarity (Example 6); type: physicochemical; details: for Tween 60 required to achieve optical clarity: 1 g crystalline β-carotene
Experimental: One advantage of the present invention is the wide range of temperatures which can be used in b) above. The temperature developed in mixing in b) is preferably 80°-160° or 180°-200° C. The lower temperatures are particularly useful where more temperature sensitive ingredients are involved. […] Therefore to minimise the amount of emulsifier(s) used, a temperature of not less than 160° C. or preferably 180° C. is preferred. The use of these high temperatures incurs the risk of degradation of pigment unless suitable precautions are taken. For example it is necessary to incorporate an antioxidant in the initial stages of preparation and it is desirable to exclude oxygen by heating the mixture in an atmosphere of nitrogen.
1 g of crystalline β-carotene required the following amounts of Tween 60 at the temperatures stated

Row | SMILES | stabilising effect on colour [1] | effect on dissolution of carotene [2] | Tween 60 required to achieve optical clarity ([3]; 140 °C) [g] | Tween 60 required to achieve optical clarity ([3]; 160 °C) [g] | Tween 60 required to achieve optical clarity ([3]; 180 °C) [g] | Tween 60 required to achieve optical clarity ([3]; 200 °C) [g] | effect of temperature on emulsifier required to achieve optical clarity ([3]; pure β-carotene, in words)
1 | CC(C=O)=CC=CC(C)=CC=CC=C(C)C=CC=C(C)C=CC1=C(C)CCCC1(C)C [apo-carotenal, β-8'-apo-carotenal] | helps to stabilise β-carotene | promoting the dissolution of carotene | – | – | – | – | –
2 | O=C1O[C@H]([C@@H](O)CO)C(O)=C1O [ascorbic acid] | effective in reinforcing the stabilising effect of the antioxidants | – | – | – | – | – | –
3 | CC1=C(/C=C/C(C)=C/C=C/C(C)=C/C=C/C=C(C)/C=C/C=C(C)/C=C/C2=C(C)CCCC2(C)C)C(C)(C)CCC1 [crystalline β-carotene, β-carotene] | – | – | 10.5 | 7.5 | 4.0 | 3.0 | an increase in temperature permits a reduction in the amount of emulsifier(s) required
